Source: article PMC9495262, “In Vitro Antiparasitic Activities of Monovalent Ionophore Compounds for Human and Canine Leishmaniases” (Animals : an Open Access Journal from MDPI, 2022)
Read-outs that look alike come from different tables or passages of the source.

Tests used:
[1] = tested on: L. braziliensis promastigotes; assay: Leishmania promastigote viability assay (MTT), L. braziliensis; format: cell-based; details: mean ± SD of three experiments in duplicate
Protocol: (§1) Promastigote stages of L. infantum strain (MHOM/TN/80/IPT1) (WHO international reference strain, kindly provided by Dr. M. Gramiccia and Dr. T. Di Muccio, ISS, Roma, Italy), and clinical isolates of L. tropica (MHOM/SY/2012/ISS3130) and L. braziliensis (MHOM/PE/2006/ISS2848) (kindly provided by Dr. R. Grande, Sacco Hospital, Milan, Italy), were cultured in Schneider’s Drosophila medium (Lonza) supplemented with 2 mM L-glutamine and 10% heat-inactivated FBS (HyClone) at 24 °C.
(§2) To estimate the 50% inhibitory concentration (IC50) of compounds on both cells and Leishmania promastigotes, the MTT (3-[4,5-dimethylthiazol-2-yl]-2,5-diphenyltetrazolium bromide) assay was used with minor modifications. Briefly, monensin and nigericin were dissolved in ethanol (10 mg/mL), and salinomycin and amphotericin B in DMSO (10 mg/mL). All compounds were then diluted with medium to achieve the required concentrations (final DMSO or ethanol concentration <1%, non-toxic to the parasite or cells). The complete medium used for the antileishmanial activity assay was RPMI 1640 (EuroClone) supplemented with 10% heat-inactivated FBS (EuroClone), 20 mM HEPES, and 2 mM L -glutamine. Drugs were added to 96-well round-bottom microplates and seven serial dilutions were performed. Amphotericin B was used as the reference anti-Leishmania drug. Subsequently, 100 μL of the parasite suspension (5 × 10^6 parasites/mL) was dispensed into the plates. After 72h of incubation at 24 °C, 20 μL of MTT solution (5 mg/mL in PBS) was added into each well. After 3 h in the dark, the plates were centrifuged, the supernatants discarded, and the formazan crystals in the pellet dissolved in 100 μL of lysing buffer (20% w/v of a solution of SDS -Merck-, and 40% of N,N-dimethylformamide -Merck- in H2O).
(§3) For cell cytotoxicity experiments, 100 μL (5 × 10 ^5 cells/mL) of THP-1 cells were plated in 96-well flat-bottom microplates and treated with 0.1 µM phorbol myristate acetate (PMA, Merck, Kenilworth, NJ, USA) for 72 h to achieve differentiation into macrophages. Cells were then treated with different drug concentrations (60–0.4 µM). After 72 h, 20 μL of the MTT solution was added into each well. After 3 h in the dark, the supernatants were discarded and the formazan crystals dissolved in 100 μL of the same lysing buffer described above. The absorbance was then measured spectrophotometrically at 550 nm (reference wavelength 650 nm). The results are expressed as IC50, which is the dose of compound necessary to inhibit parasite and cell growth by 50%. The IC50 values were extrapolated from nonlinear regression analysis of the concentration–response curve using the software Gen5 1.10 provided with the Synergy 4 (BioTek, Winooski, VT, USA) reader. Data are the mean ± standard deviation of individual experiments performed in duplicate.

[2] = tested on: L. infantum intracellular amastigotes; assay: Intracellular amastigote susceptibility assay in human dTHP-1 (Giemsa counting); format: cell-based, Leishmania infantum; details: for IC50: Leishmania infantum, read-out: Amastigotes IC50; for SI (Selectivity index = IC50 dTHP-1/IC50 amastigotes): ratio of cytotoxicity on dTHP-1 to activity on L. infantum amastigotes
Protocol: For Leishmania spp. infections, 100 μL of THP-1 cells (5 × 10^5 cells/mL) or canine macrophages (2 × 10^6 cells/mL) were plated in 16-chamber Lab-Tek culture slides (Nunc) and further treated with 0.1 µM of PMA for 72 h to achieve differentiation into macrophages. Cells were then washed with PBS and infected with stationary phase L. infantum promastigotes at a macrophage:promastigote ratio of 1:10. After 24 h, cell monolayers were extensively washed with PBS to remove non-internalized promastigotes and observed under an inverted light microscope to evaluate both the cellular size and the cellular morphology. Infected cells were then incubated in the presence of test compounds for 72 h. Infected and/or treated cells were then fixed with 100% methanol and stained with Giemsa at room temperature. The percentage of infected macrophages in treated and non-treated wells was determined by counting 200–300 macrophages/well under a light microscope. About 10 random microscopic fields/well were observed. The number of infected macrophages in the untreated control samples was considered 100% for calculating the percentage of infection in drug treated samples. IC50 values were then calculated. Data are the mean ± standard deviation of individual experiments performed in triplicate.
Next, human macrophages (dTHP-1) were infected with stationary-phase promastigotes of L. infantum at a cell:promastigote ratio of 1:10 for 24 h, and allowed to differentiate into intracellular parasite forms. After the removal of free promastigotes, the infected macrophages were incubated for 72 h in the presence of the ionophores at different concentrations. A significant reduction in the number of infected macrophages was observed after treatment with all the compounds tested. The inhibition was dose-dependent with IC50s between 1 and 2 µM (Table 3).

[3] = tested on: L. infantum promastigotes; assay: Leishmania promastigote viability assay (MTT), L. infantum; format: cell-based; details: mean ± SD of three experiments in duplicate
Protocol: as §1, §2, §3

[4] = Cytotoxicity (MTT) on PMA-differentiated THP-1 macrophages; format: cell-based; details: human
Protocol: THP-1 cells (human acute monocytic leukemia cell line) were maintained in Roswell Park Memorial Institute (RPMI) 1640 medium supplemented with 10% fetal bovine serum (FBS, EuroClone), 50 µM 2-mercaptoethanol, 20 mM HEPES, and 2 mM L-glutamine, at 37 °C in 5% CO2.
as §3

[5] = tested on: L. tropica promastigotes; assay: Leishmania promastigote viability assay (MTT), L. tropica; format: cell-based; details: mean ± SD of three experiments in duplicate
Protocol: as §1, §2, §3

[6] = tested on: all Leishmania spp. promastigotes; assay: Promastigote viability assay, all Leishmania species tested (summary statements); format: cell-based; details: read-out: IC50 against all Leishmania spp. promastigotes tested
Protocol: as §1
as §2, with “After 3 h in the dark, the plates were centrifuged, the supernatants discarded, and the formazan crystals in the pellet dissolved in 100 μL of lysing buffer (20% w/v of a solution of SDS -Merck-, and 40% of N,N-dimethylformamide -Merck- in H2O).” left out
For cell cytotoxicity experiments, 100 μL (5 × 10 ^5 cells/mL) of THP-1 cells were plated in 96-well flat-bottom microplates and treated with 0.1 µM phorbol myristate acetate (PMA, Merck, Kenilworth, NJ, USA) for 72 h to achieve differentiation into macrophages. […] The absorbance was then measured spectrophotometrically at 550 nm (reference wavelength 650 nm). […] The IC50 values were extrapolated from nonlinear regression analysis of the concentration–response curve using the software Gen5 1.10 provided with the Synergy 4 (BioTek, Winooski, VT, USA) reader. […]

[7] = tested on: L. donovani intracellular amastigotes; design: method as in PMID 21358812; details: read-out: IC50 against intracellular amastigotes, ex vivo splenic explant model of L. donovani infection; cited from earlier work
[8] = in vitro; format: cell-based; details: human
Protocol: as §3
Non-infected human macrophages (PMA-differentiated THP-1, dTHP-1) and human dermal fibroblasts (HDF) were incubated in the presence of different concentrations of ionophores to determine the nontoxic concentration for mammalian cells.

[9] = tested on: promastigotes of L. donovani; design: method as in PMID 12864731; details: previous work; read-out: IC50 against promastigotes of L. donovani; cited from earlier work
[10] = Leishmania braziliensis, MTT assay after 72 h of treatment, read-out: IC50 against L. braziliensis promastigotes
[11] = L. infantum-infected dTHP-1 treated for 72 h, Giemsa, percentage of infected cells
[12] = Leishmania infantum, MTT assay after 72 h of treatment, read-out: IC50 against L. infantum promastigotes
[13] = non-infected PMA-differentiated THP-1 macrophages (dTHP-1), non-infected PMA-differentiated THP-1, MTT assay after 72 h of treatment, read-out: CC50 dTHP-1
[14] = Leishmania tropica, MTT assay after 72 h of treatment, read-out: IC50 against L. tropica promastigotes
[15] = L. infantum, L. tropica and L. braziliensis promastigotes, summary statement

Structure (SMILES) | IC50 [1, 10] [nM] | IC50 [2, 11] [nM] | SI (Selectivity index = IC50 dTHP-1/IC50 amastigotes) [2] | IC50 [3, 12] [nM] | CC50 at 72 h [4, 13] [nM] | IC50 [5, 14] [nM] | IC50 [6, 15] [nM] | CC50 at 72 h [4] [nM] | IC50 [7] [nM] | CC50 at 72 h [8] [nM] | IC50 ([1]; Leishmania braziliensis, 72 h, read-out: IC50 against L. braziliensis promastigotes, MTT assay after 72 h of treatment) [nM] | IC50 ([1]; read-out: IC50 against L. braziliensis promastigotes, MTT assay after 72 h of treatment) [nM] | IC50 [6] [nM] | IC50 ([2]; 72 h) [nM] | IC50 ([3]; Leishmania infantum, 72 h, read-out: IC50 against L. infantum promastigotes, MTT assay after 72 h of treatment) [nM] | IC50 ([3]; read-out: IC50 against L. infantum promastigotes, MTT assay after 72 h of treatment) [nM] | IC50 [9] [nM] | IC50 ([5]; Leishmania tropica, 72 h, read-out: IC50 against L. tropica promastigotes, MTT assay after 72 h of treatment) [nM] | IC50 ([5]; read-out: IC50 against L. tropica promastigotes, MTT assay after 72 h of treatment) [nM]
C[C@@H]1[C@H](O)[C@@H](C)/C=C/C=C/C=C/C=C/C=C/C=C/C=C/[C@H](O[C@@H]2O[C@H](C)[C@@H](O)[C@H](N)[C@@H]2O)C[C@@H]2O[C@](O)(C[C@@H](O)C[C@@H](O)[C@H](O)CC[C@@H](O)C[C@@H](O)CC(=O)O[C@H]1C)C[C@H](O)[C@H]2C(=O)O [Amphotericin B] | 80 ± 20 | 180 ± 30 | >111.1 | 120 ± 20 | > 20000 | 100 ± 20 |  |  |  |  |  |  |  |  |  |  |  |  | 
CC[C@@]1([C@@H]2O[C@@H]([C@H]3O[C@@](O)(CO)[C@H](C)C[C@@H]3C)C[C@@H]2C)CC[C@H]([C@]2(C)CC[C@]3(C[C@H](O)[C@@H](C)[C@@H]([C@@H](C)[C@@H](OC)[C@H](C)C(=O)O)O3)O2)O1 [Monensin, monensin] | 270 ± 130 | 1670 ± 430 | >35.9 | 630 ± 110 |  | 350 ± 170 | < 1000 | > 60000 | 850 | > 60000 |  |  |  |  |  |  |  |  | 
CO[C@@H]1C[C@@H](C[C@H]2CC[C@H](C)[C@H]([C@@H](C)C(=O)O)O2)O[C@]2(O[C@](C)([C@H]3CC[C@@](C)([C@@H]4O[C@@H]([C@H]5O[C@@](O)(CO)[C@H](C)C[C@@H]5C)C[C@@H]4C)O3)C[C@H]2C)[C@@H]1C [Nigericin, nigericin] | 780 ± 80 | 1790 ± 830 | >33.5 | 370 ± 40 |  | 230 ± 50 | < 1000 | > 60000 |  | > 60000 |  |  |  |  |  |  |  |  | 
CC[C@@H](C(=O)[C@@H](C)[C@@H](O)[C@H](C)[C@@H]1O[C@@H]([C@@H](CC)C(=O)O)CC[C@@H]1C)[C@H]1O[C@]2(C=C[C@@H](O)[C@]3(CC[C@@](C)([C@H]4CC[C@](O)(CC)[C@H](C)O4)O3)O2)[C@H](C)C[C@@H]1C [Salinomycin, salinomycin] |  |  | 16.6 |  | 32100 ± 5300 |  |  |  |  | > 60000 | ~5000 | 5080 ± 1740 | > 4000 | 1930 ± 100 | ~8000 | 7980 ± 640 | ~1700 | ~5000 | 4530 ± 600
